This note sets out measurements from patent US20110257176A1, “NITROGEN HETEROCYCLE DERIVATIVES AS PROTEASOME MODULATORS” (INSTITUT NATIONAL DE LA SANTE ET DE LA RECHERCHE MEDICALE …, priority 2008, published 2011).

Some results are limits rather than exact numbers.

One test concerns the target T1, human calpain-I (Homo sapiens, UniProt P07384).
T1 sequence (P07384 1-714): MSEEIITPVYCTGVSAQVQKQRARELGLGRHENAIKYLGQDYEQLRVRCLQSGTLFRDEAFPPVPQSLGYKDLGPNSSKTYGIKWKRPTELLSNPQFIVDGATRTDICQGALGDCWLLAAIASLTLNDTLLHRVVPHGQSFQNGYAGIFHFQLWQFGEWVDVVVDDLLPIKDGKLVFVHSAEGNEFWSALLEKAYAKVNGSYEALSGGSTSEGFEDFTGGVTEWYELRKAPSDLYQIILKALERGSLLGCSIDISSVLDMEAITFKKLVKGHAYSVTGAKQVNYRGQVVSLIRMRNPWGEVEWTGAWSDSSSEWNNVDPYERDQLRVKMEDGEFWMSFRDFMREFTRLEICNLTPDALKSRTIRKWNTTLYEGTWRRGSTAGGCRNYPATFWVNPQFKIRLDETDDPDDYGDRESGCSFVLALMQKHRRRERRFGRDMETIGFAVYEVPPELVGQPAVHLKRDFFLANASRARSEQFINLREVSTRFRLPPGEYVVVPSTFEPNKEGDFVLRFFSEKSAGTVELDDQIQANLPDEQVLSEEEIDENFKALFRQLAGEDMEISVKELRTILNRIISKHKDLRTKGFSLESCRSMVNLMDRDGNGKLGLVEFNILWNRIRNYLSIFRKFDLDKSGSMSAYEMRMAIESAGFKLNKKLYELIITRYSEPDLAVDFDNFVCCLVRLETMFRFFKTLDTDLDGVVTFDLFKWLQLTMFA
T1 sequence (P04632 1-268 partner): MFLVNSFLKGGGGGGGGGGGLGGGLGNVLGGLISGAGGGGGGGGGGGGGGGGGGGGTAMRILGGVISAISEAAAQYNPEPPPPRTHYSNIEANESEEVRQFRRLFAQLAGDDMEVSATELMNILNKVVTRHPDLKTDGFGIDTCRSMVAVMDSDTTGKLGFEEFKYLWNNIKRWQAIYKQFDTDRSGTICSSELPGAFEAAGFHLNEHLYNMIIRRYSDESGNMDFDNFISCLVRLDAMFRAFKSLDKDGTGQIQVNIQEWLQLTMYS
In words: Selectivity: inhibition of calpain-I. It is filed as biochemical. The settings on record: 100 μM compound.

In test [1] the test system is rabbit reticulocyte 20S proteasome, trypsin-like (T-L) activity. In words: 20S proteasome trypsin-like (T-L) activity, Boc-LRR-AMC hydrolysis. It is filed as biochemical. Also noted: key to Inhibition of trypsin-like activity (NI): NI: No Inhibition. The settings on record: rabbit 20S proteasome; for Inhibition of trypsin-like activity (NI): screened at 100 μM and 50 μM. On the procedure: (§1) Rabbit erythrocyte 20S proteasome was obtained from Boston Biochem, Cambridge, USA. The fluorogenic substrates Suc-LLVY-AMC, Boc-LRR-AMC and Z-LLE-βNA used to measure the proteasome activities CT-L, T-L and PA respectively were purchased from Bachem (France). Other reagents and solvents were purchased from commercial sources. Fluorescence was measured using a BMG Fluostar microplate reader.
(§2) Compounds 1-23 were tested for their potential to inhibit the CT-L, T-L and PA activities of the rabbit reticulocyte 20S proteasome. Enzyme activities were determined by monitoring the hydrolysis of the appropriate fluorogenic substrate (λexc=360, λem=465 nm for AMC substrates, and λexc=340, λem=405 nm for the βNA substrate) for 1 h at 37° C.
(§3) In the in vitro screening, each compound was tested in duplicate against the three activities, at 100 μM and 50 μM in the corresponding buffer. The buffer were (pH 8): 50 mM Tris, 150 mM NaCl, 10% (v/v) glycerol, 0.025% (w/v) SDS, and 3% (v/v) DMSO (CT-L and PA activities); 50 mM Tris, 150 mM NaCl, 10% (v/v) glycerol, and 3% (v/v) DMSO (T-L activity).
(§4) The inhibitory activity of compounds is expressed as IC50, which corresponds to the concentration of proteasome inhibitor leading to a loss of activity of 50%. The values of IC50 were calculated by fitting the experimental data to equation 1: % Inhibition=100×(1−Vi/V0)=100 [I]0/(IC50+[I]0), or equation 2: % Inhibition=100 [I]0^nH/(IC50^nH+[I]0^nH), where Vi is the initial rate in the presence of the inhibitor, V0 is the initial rate in the absence of the inhibitor, [I]0 is the inhibitor concentration, nH is the Hill number (FIG. 1).

Test [2] addresses T2, rabbit reticulocyte 20S proteasome, chymotrypsin-like (CT-L) activity (UniProt G1T4Q9).
T2 construct: IC50 on chymotrypsin-like activity; other: rabbit 20S proteasome, pH 8, 37° C; Rabbit erythrocyte 20S proteasome was obtained from Boston Biochem, Cambridge, USA
Nature of the test: 20S proteasome chymotrypsin-like (CT-L) activity, Suc-LLVY-AMC hydrolysis. The conditions noted are these: rabbit 20S proteasome, pH 8, 37° C. It is filed as biochemical. The protocol:
as §1, §2, §3, §4

Test [3] deals with rabbit reticulocyte 20S proteasome, post-acid (PA) activity (Oryctolagus cuniculus, UniProt G1T235). Nature of the test: 20S proteasome post-acid (PA) activity, Z-LLE-βNA hydrolysis. It is filed as biochemical. Also noted: key to Inhibition of post-acid activity (NI): NI: No Inhibition. The settings on record: rabbit 20S proteasome; for Inhibition of post-acid activity (NI): screened at 100 μM and 50 μM. On the procedure: as §1, §2, §3, §4
Chain of rabbit reticulocyte 20S proteasome, post-acid (PA) activity (G1T235 entry or part of it): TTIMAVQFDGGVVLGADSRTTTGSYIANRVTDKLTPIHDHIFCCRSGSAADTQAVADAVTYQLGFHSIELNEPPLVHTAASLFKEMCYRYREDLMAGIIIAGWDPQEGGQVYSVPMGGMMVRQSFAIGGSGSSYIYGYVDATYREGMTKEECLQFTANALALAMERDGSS

In test [4] the target is T3, rabbit reticulocyte 20S proteasome, chymotrypsin-like (CT-L) activity (Oryctolagus cuniculus, UniProt G1T4Q9).
T3 construct: IC50 on chymotrypsin-like activity; other: rabbit 20S proteasome, pH 8, 37° C; Rabbit erythrocyte 20S proteasome was obtained from Boston Biochem, Cambridge, USA
T3 sequence (G1T4Q9 1-263): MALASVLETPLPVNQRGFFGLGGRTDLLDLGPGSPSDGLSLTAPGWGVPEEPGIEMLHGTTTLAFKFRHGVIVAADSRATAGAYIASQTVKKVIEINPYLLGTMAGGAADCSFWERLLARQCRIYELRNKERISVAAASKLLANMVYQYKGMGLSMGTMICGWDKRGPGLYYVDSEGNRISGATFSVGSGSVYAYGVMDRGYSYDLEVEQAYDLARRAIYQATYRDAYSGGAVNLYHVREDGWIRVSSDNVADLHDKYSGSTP
In words: 20S proteasome chymotrypsin-like (CT-L) activity, Suc-LLVY-AMC hydrolysis. The format is biochemical. The conditions noted are these: rabbit 20S proteasome, pH 8, 37° C. The protocol: as §1, §2, §3, §4

The subject of the next test is HEK-293 cells. Nature of the test: Cell viability, XTT assay, HEK-293. It is filed as cell-based. The conditions noted are these: Homo sapiens, HEK293, 48 h, read-out: EC50, concentration inhibiting cell growth by 50%. The protocol:
(§5) The cell survival was determined with the XTT assay. Human cells (HeLa from cervical carcinoma and HEK-293 from epithelial kidney) were obtained from Invitrogen (Cergy-Pontoise, France). The cells were grown at 37° C. in DMEM supplemented with 10% fetal bovine serum (Invitrogen) in a humidified atmosphere of 5% CO2 and 95% air.
(§6) 5×10^3 cells in 100 μL culture medium were exposed for 48 h in 96-well plates to increasing concentrations of compounds: 5-100 μM, final concentration of DMSO is 1% (v/v). The culture medium is then replaced by 100 μL of DMEM F12 culture medium devoid of phenol red and containing a mixture of XTT (0.3 mg/mL) and PMS (8.3 nM) (XTT: 2,3-bis[2-methoxy-4-nitro-5-sulfophenyl-2H-tetrazolium-5-carboxyanilide sodium; PMS: phenazine methosulfate, both purchased from Sigma, Saint Quentin Fallavier, France). Cells were then incubated for 3 h at 37° C.
(§7) During this incubation, the mitochondrial deshydrogenases of viable cells hydrolyzed the tetrazolium cycle of XTT, leading to orange formazan crystals soluble in aqueous solution.
(§8) The orange color was measured at 485 nm using a BMG Fluostar microplate reader.
(§9) In control experiments, cells were treated by the vehicule (DMSO) at the same concentration than that used for the inhibitors.
The cytotoxicity activity of drags was expressed as the concentration inhibiting cell growth by 50% (EC50) calculated from the survival curves. The experimental data are fitted to the following equation, describing the relationship between % survival and drug concentration (C):
% cell survival=100−(Emax×C^n)/(C^n+EC50^n)
where C is the drug concentration; Emax is the maximum drug effect (%); EC50 is the concentration that produces one-half of the maximum effect; and n is the Hill constant, which describes the shape of the curve.
(In general: Tetrazolium assays rely on reduction of a dye to a coloured formazan, in cell work by metabolically active cells.)

The target in another test is human cathepsin B (Homo sapiens, UniProt P07858). Nature of the test: Selectivity: inhibition of cathepsin B. It is filed as biochemical. The conditions noted are these: 100 μM compound.
In another test the test system is HeLa cells. Nature of the test: Cell viability, XTT assay, HeLa. The format is cell-based. The conditions noted are these: Homo sapiens, 48 h, read-out: EC50, concentration inhibiting cell growth by 50%. On the procedure:
as §5, §6, §7, §8, §9
The cytotoxicity activity of drags was expressed as the concentration inhibiting cell growth by 50% (EC50) calculated from the survival curves. […]

Consider `C=CCN(Cc1nc(-c2ccc(OC)cc2)no1)C(=O)COc1ccccc1` [Compound 8], for which, on human calpain-I, the inhibition at 100 µM was no more than 30%. Moreover, in test [1], the “Inhibition of trypsin-like activity (NI)” value is given as “NI”. Further, inhibition in test [2] was half-maximal at 1.66 ± 0.12 µM (IC50). The “Inhibition of post-acid activity (NI)” value in test [3] is given as “NI”.

On to `O=C(Cc1cccc2ccccc12)Nc1cccc(-c2nnc(-c3ccccc3)o2)c1` [Compound 21], for which the “Inhibition of trypsin-like activity (NI)” value in test [1] is recorded as “NI”. Half-maximal inhibition in test [4] (IC50) was put at 144 ± 22 µM. The inhibition at 100 µM in test [3] (100 μM inhibitor, read-out: % inhibition (inhibitor concentration) on post-acid activity) is 22%. Also, the EC50 with HEK-293 cells is 26 ± 2.3 µM.

Regarding `COc1ccc(-c2noc(CN(C(=O)COc3cccc(C)c3)C(C)C)n2)cc1` [Compound 13], the “% inhibition (inhibitor concentration) on trypsin-like activity” value in test [1] (100 μM inhibitor) is 28% (100 μM). Also, the half-inhibitory concentration (IC50) (as a rule, the concentration at which inhibition is half-maximal) in test [2] was 2.33 ± 0.28 µM. Moreover, the “Inhibition of post-acid activity (NI)” value in test [3] was “NI”. Besides, the “Inhibition of human cathepsin B (in words)” value on human cathepsin B is “no inhibition”.

Take `COc1ccc(OCC(=O)N(Cc2nc(-c3ccc(C)cc3)no2)C(C)C)cc1` [Compound 16]: the “Inhibition of human calpain-I (in words)” value on human calpain-I is listed as “no inhibition”. The “Inhibition of trypsin-like activity (NI)” value in test [1] is “NI”. In test [2], the half-inhibitory concentration (IC50) was determined as 2.49 ± 0.91 µM. Besides, the “Inhibition of post-acid activity (NI)” value in test [3] is given as “NI”.

In the case of `COc1ccc(OCC(=O)N(Cc2nc(-c3ccccc3)no2)C(C)C)cc1` [Compound 6], the “Inhibition of human calpain-I (in words)” value at human calpain-I is reported as “no inhibition”. Moreover, in test [2], the half-inhibitory concentration (IC50) amounted to 1.02 ± 0.16 µM. Besides, the “Inhibition of post-acid activity (NI)” value in test [3] was “NI”.

Take `Cc1cccc(-c2noc(CN(C(=O)COc3ccc(C(C)C)cc3)C(C)C)n2)c1` [Compound 2]: the “Inhibition of trypsin-like activity (NI)” value in test [1] was “NI”. For the same compound, in test [2], the IC50 was roughly 1 µM. Further, in the test on HeLa cells, the EC50 was found to be 32 ± 3.6 µM. The “Inhibition of post-acid activity (NI)” value in test [3] is given as “NI”.
